Measured values from US20250066739A1, “Compositions and Methods for Improving Squamous Epithelial Organoids and Their Production” (The Trustees of Columbia University in the City of New York, priority 2022, published 2025).

Experiments:
[1] = test system: EPC1 and EPC2 hTERT-immortalized normal esophageal keratinocytes; experiment: Organoid formation by EPC1/EPC2 esophageal 3D organoids; format: cell-based
Protocol: (§1) In general, 2×10^4 cells were seeded per well to initiate PDO in 24-well plates, which were pre-warmed to 37° C. 1.4×10^5 cells were transferred into a 1.7-mL tube and centrifuged at 500×g (2,300 rpm on Eppendorf 5424R) for 3 min at room temperature to pellet cells. Cells were resuspended in 350 μL ice-cold MATRIGEL® and 50 μL of the suspension was aliquoted into each well of 24-well plate. The 24-well plate was placed in a CO2 incubator at 37° C. for 30 min to allow the MATRIGEL® to solidify.
(§2) 500 μL of a tumor-type specific organoid medium (see Example 11) was added to each well, and the organoid media was changed every 2 to 3 days. Contamination and organoid growth was monitored under a phase-contrast microscope, and organoids were allowed to grow for 10 to 14 days and then passaged or harvested. If spherical structures were observed but grew slowly, the culturing period was extended for another 7 to 14 days.
To evaluate organoid growth, 3D organoid structures were monitored during culturing, and their size was documented by a conventional phase-contrast inverted microscope or high-throughput cell imaging instruments (e.g., Celigo Image Cytometer, Nexcelom Bioscience) with the capacity of automated multi-well rapid imaging and quantitative analysis of organoid size, number, and structure. Organoids were grown in 24-well or 96-well plates as described above, and phase-contrast images were manually acquired. Using ImageJ software, the diameter of at least 5 organoids per well was measured. The Celigo Image Cytometer was also used to acquire phase-contrast images and calculate mean organoid area for all organoids imaged. Growth curves were subsequently calculated by repeating measurements every other day and plotting organoid diameter or area at each time point.
In order to improve the success rate of creating and subculturing organoids through increasing numbers of passages, alterations to existing media were explored and compared to each other and the HC media described in Driehuis et al., Cancer Discov, 2019; 9:852-71. […]

neoplastic PDOs = experiment: Growth and formation of neoplastic PDOs; format: cell-based, human; conditions: FIG. 2
Protocol: as §1, §2
To evaluate organoid growth, 3D organoid structures were monitored during culturing, and their size was documented by a conventional phase-contrast inverted microscope or high-throughput cell imaging instruments (e.g., Celigo Image Cytometer, Nexcelom Bioscience) with the capacity of automated multi-well rapid imaging and quantitative analysis of organoid size, number, and structure. […] Using ImageJ software, the diameter of at least 5 organoids per well was measured. […]

| Compound | EPC1/EPC2 organoid growth in HOME50 devoid of A83-01 ([1]; medium lacking A83-01 (ΔA), FIG. 5) | organoid formation and structure ([1]; effect of EGF concentration, esophageal 3D organoids, FIG. 1) | squamous-cell differentiation gradient ([1]; low EGF concentration, FIG. 1) | growth and formation of neoplastic PDOs (neoplastic PDOs) |
| --- | --- | --- | --- | --- |
| Cc1cccc(-c2nn(C(=S)Nc3ccccc3)cc2-c2ccnc3ccccc23)n1 [A83-01, reference compound] | did not grow |  |  |  |
| EGF: Recombinant human epidermal growth factor (Peprotech, cat. No. AF-100-15) (NSDSECPLSHDGYCLHDGVCMYIEALDKYACNCVVGYIGERCQYRDLKWWELR; Epidermal growth factor; UniProt P01133 971-1023, looked up) |  | influences organoid formation and structure | more closely recapitulates a normal squamous-cell differentiation gradient | may stimulate growth, if not formation |
